Measured values: patent publication US11739083B2, “Disposable sensor chip with reagent including 2-substituted benzothiazolyl-3-substituted phenyl-5-substituted sulfonated phenyl-2H-tetrazolium salt” (TERUMO KABUSHIKI KAISHA, priority 2016, dated 2023)

Experiments:
[1] = Evaluation of sensitivity (colour development with glucose, GDH-FAD, m-PMS, nickel; gradient versus WST-4)
Description: (§1) Separately, 100 μL of RO water was added to 7 mg of a glucose dehydrogenase that uses flavin adenine dinucleotide (FAD) as a coenzyme (GDH-FAD) (manufactured by TOYOBO CO., LTD., product No.: GLD-351), the enzyme was dissolved, and thus a GDH solution was produced. Furthermore, 200 μL of RO water was added to 3.5 mg of 1-methoxy-5-methylphenazium methyl sulfate (m-PMS) (manufactured by DOJINDO LABORATORIES), and the compound was dissolved therein. Thus, an s-PMS solution was produced. 1 mL of RO water was added to 129 mg of nickel chloride to dissolve the salt, and thus a nickel solution was produced.
40 μL of the reaction solution was added to 10 μL each of an aqueous glucose solution at a concentration of 125 mg/dL, an aqueous glucose solution at a concentration of 250 mg/dL, and an aqueous glucose solution at a concentration of 1,000 mg/dL, and the mixtures were allowed to develop color. The spectra were measured with a spectrophotometer (measurement cell length: 50 μm) (n=1). […] Thus, the gradient (gradientsample) was determined.
40 μL of the control reaction solution was added to 10 μL each of an aqueous glucose solution at a concentration of 125 mg/dL, an aqueous glucose solution at a concentration of 250 mg/dL, and an aqueous glucose solution at a concentration of 1,000 mg/dL, and the mixtures were allowed to develop color. The spectra were measured with a spectrophotometer (measurement cell length: 50 μm) (n=1). For each of the spectra, the absorbance at 650 nm, which is the measurement wavelength (λmax) of WST-4, was measured, and the glucose concentration in the colored solution and the absorbance were plotted on the horizontal axis and the vertical axis, respectively. Thus, the gradient (gradientWST-4) was determined.
FIG. 2 is a graph showing the relationship between the glucose concentration and the absorbance of produced formazan in relation to the tetrazolium compound 1 and WST-4. […] Meanwhile, the gradient serves as an index for the color development intensity of each compound. Therefore, when the value obtained by dividing the gradientsample by the gradientWST-4 (gradientsample/gradientWST-4) is greater than one-fold, it is implied that the intensity of color development on the longer wavelength side is higher compared to WST-4, which is a well-known indicator reagent.

[2] = Evaluation Example 1: evaluation as blood glucose meter sensor
Description: as §1, with “dehydrogenase” for “dehydrogenase that uses flavin adenine dinucleotide (FAD) as a coenzyme”, “GLD-351) to dissolve” for “GLD-351),”, “enzyme,” for “enzyme was dissolved,”, “LABORATORIES) to dissolve the compound,” for “LABORATORIES),”, “thus” for “the compound was dissolved therein. Thus,”
The coating liquid obtained as described above was applied on a PET film, and a reagent ribbon 1 was produced. The area of coating was 1.5 mm×75 mm (total coating amount 5.6 μL). This reagent ribbon 1 was cut in the longitudinal direction, and a reagent piece 2 was obtained (1.5 mm×3 mm).
Along the two edges of a PET film 5 that would become one surface of a blood glucose meter sensor, a double-sided tape having a thickness of […] was provided as a spacer. […]
A whole blood sample (Ht40, 100 mg/dL) (hematocrit value 40%, glucose concentration 100 mg/dL) was spotted at the flow channel inlet port of the blood glucose meter sensor thus produced. The whole blood sample (Ht40, 100 mg/dL) was produced as follows: whole blood was collected into a heparin-containing blood sampling tube, the hematocrit value of this whole blood was measured, and the hematocrit value of the whole blood sample was regulated to be Ht40 by adding the blood plasma obtained by separation in advance, or by removing the blood plasma of the whole blood sample, as appropriate. […] The specimen was spotted on the reagent part, and then after 9 seconds, the spectrum was measured using a fiber spectrophotometer. The absorbance at the maximum absorption wavelength was measured using the spectrum measured with each of the blood glucose meter sensors that used various compounds. The absorbance obtainable in the case of measuring the whole blood sample (Ht40, 100 mg/dL) was designated as AbsBG100. […]

[3] = Evaluation of water-solubility (visual check for precipitate); type: physicochemical; conditions: RO water / 0.5 M MOPS solution (1:1), aqueous buffer, thermodynamic from solid; RO water and 0.5 M MOPS pH 7.2; 200, 100, 20 mM; stirred 5 minutes
Description: After the mixture was stirred for 5 minutes, a precipitate was checked by visual inspection. […] After the mixture was stirred for 5 minutes, a precipitate was checked by visual inspection. […] After the mixture was stirred for 5 minutes, a precipitate was checked by visual inspection.

[4] = Evaluation of stability (absorbance increase of measurement solution over 6 hours); conditions: FIG. 3; absorbance increase per hour over 6 hours
Description: To 0.02 mmol of each compound, 75 μL of RO water and 100 μL of a 0.5 M MOPS solution (pH 7.2) were added, and the compound was dissolved therein. The solution was used as a sample.
To 175 μL of this sample, 10 μL of the GDH solution, 5 μL of the m-PMS solution, and 10 μL of the nickel solution, all of which had been produced in the same manner as in the above section (Evaluation of sensitivity), were added, and thereby a measurement solution was produced.
As a control, 85 μL of RO water and 100 μL of a 0.5 M MOPS solution (pH 7.2) were added to 11.6 mg of 2-benzothiazolyl-3-(4-carboxy-2-methoxyphenyl)-5-[4-(2-sulfoethylcarbamoyl)phenyl]-2H-tetrazolium (WST-4), and the compound was dissolved. Thus, a control sample was produced. […] Thus, a control reaction solution was produced.
At the time of production of the measurement solution (0 hour), and after 1 hour, 2 hours, and 6 hours from the production, the spectra of the measurement solutions produced as described above were measured using a spectrophotometer (measurement cell length: 50 μm) (n=1). For each spectrum, the absorbance at the maximum absorption wavelength (λmax) of each compound as determined above was measured. The absorbances measured at the time of production of the measurement solution (0 hour) and after 6 hours from the production were designated as Abs0 h and Abs6 h, respectively. […]

- solubility at 5 min [3]: > 200 mM
- [(Abs6 h−Abs0 h)/6] value [4]: about 0.008
SMILES: COc1ccc2nc(-n3nc(-c4ccc(S(=O)(=O)O)cc4S(=O)(=O)[O-])n[n+]3-c3ccc(OC)c(S(=O)(=O)O)c3)sc2c1 [Example 1]
- ratio gradientsample/gradientWST-4 ([1]; FIG. 2): about 2.4
- gradient (absorbance versus glucose concentration) ([1]; FIG. 2, compound 1 at its λmax with nickel, WST-4 at 650 nm without nickel): 0.0063
- Sensitivity, comparison with Comparative Example 5 (rating) ([1]; gradientsample/gradientWST-4, absorbance at λmax versus glucose concentration, cell length 50 μm): ⊙ (gradientsample/gradientWST-4) was 2 or greater)
- time to completion of color development ([2]; whole blood and aqueous glucose solution, absorbance at 630 nm, FIG. 7): 5 s
- absorbance ([2]; whole blood and aqueous glucose solutions, 9 seconds from initiation of reaction, FIG. 6): higher than 0.2
- color development (ΔAbs=AbsBG100−AbsBG0) relative to WST-4 (650 nm) ([2]; whole blood sample Ht40, 100 mg/dL, 9 seconds, FIG. 5): about 3 times
